The record followed here is patent US12662451B2, “Chemical compounds and uses thereof” (GLAXOSMITHKLINE INTELLECTUAL PROPERTY (NO.4) LIMITED, priority 2023, dated 2026).

This test addresses T1, recombinant full-length WRN protein (1-1432) (Homo sapiens, UniProt Q14191).
T1 construct: recombinant full-length WRN protein (1-1432)
As to the kind of experiment: WRN unwinding activity, fluorogenic 384-well assay (Example A). In kind it is biochemical. As to conditions: WRN unwinding activity, 4 hr; Table 2; read-out: 4 hr UNW pIC50 (converted). The procedure, abridged:
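Read-out is end-point unwinding of a fluorophore/quencher duplex (ex 525, em 598 nm) after 60 min with 200 μM ATP and 12 nM DNA (2× stocks), EDTA stop. Compound first sat 4 h with 200 pM WRN (2× stock) in pH 8.0 Tris buffer; four-parameter fit gives pIC50.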

Where a name gives a salt, the structure may show the parent alone.

T1 sequence (Q14191 whole entry): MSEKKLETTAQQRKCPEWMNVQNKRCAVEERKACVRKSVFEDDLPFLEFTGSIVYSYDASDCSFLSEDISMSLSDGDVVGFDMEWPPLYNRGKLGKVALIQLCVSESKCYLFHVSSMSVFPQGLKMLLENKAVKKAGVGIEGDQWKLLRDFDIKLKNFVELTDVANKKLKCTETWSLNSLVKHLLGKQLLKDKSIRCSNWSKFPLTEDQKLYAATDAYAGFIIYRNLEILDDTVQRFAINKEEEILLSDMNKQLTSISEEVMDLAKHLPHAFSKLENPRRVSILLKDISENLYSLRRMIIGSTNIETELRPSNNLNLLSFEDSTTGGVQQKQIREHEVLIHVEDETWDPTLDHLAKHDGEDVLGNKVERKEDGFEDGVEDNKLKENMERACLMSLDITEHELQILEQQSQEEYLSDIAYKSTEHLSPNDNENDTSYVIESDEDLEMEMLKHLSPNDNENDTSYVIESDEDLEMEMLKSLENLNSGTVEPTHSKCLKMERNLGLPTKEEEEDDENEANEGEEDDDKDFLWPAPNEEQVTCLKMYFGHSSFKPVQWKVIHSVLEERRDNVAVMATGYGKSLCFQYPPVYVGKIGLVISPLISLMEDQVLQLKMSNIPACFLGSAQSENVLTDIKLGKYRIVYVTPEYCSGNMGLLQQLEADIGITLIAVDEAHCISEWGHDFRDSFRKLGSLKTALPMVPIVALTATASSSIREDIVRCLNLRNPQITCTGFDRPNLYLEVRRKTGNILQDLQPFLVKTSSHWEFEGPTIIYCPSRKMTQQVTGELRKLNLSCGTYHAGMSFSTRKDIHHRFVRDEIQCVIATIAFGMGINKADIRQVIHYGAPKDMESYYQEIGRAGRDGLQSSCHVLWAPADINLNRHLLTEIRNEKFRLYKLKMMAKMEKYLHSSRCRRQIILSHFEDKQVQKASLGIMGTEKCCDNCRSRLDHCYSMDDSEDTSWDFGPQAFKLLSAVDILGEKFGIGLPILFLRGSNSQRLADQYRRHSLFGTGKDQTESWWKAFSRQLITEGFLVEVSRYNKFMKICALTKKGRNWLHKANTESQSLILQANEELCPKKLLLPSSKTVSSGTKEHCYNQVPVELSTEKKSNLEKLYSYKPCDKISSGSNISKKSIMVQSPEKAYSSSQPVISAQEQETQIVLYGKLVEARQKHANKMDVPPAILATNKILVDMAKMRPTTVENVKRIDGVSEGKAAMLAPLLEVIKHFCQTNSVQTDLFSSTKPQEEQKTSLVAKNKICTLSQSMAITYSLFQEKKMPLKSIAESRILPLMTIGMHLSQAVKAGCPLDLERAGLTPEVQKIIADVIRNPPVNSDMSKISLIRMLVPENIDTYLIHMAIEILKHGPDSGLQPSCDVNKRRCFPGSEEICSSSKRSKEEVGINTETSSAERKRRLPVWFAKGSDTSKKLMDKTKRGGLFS

For the molecule `COc1cscc1-c1ccc([C@H]2CCC[C@@H](C(=O)Nc3ccc(C(F)(F)F)cc3F)[C@@H]2C(=O)O)cc1` [Example 42, (1R,2R,6S)-2-((2-fluoro-4-(trifluoromethyl)phenyl)carbamoyl)-6-(4-(4-methoxythiophen-3-yl)phenyl) cyclohexane-1-carboxylic acid], the IC50 is 1000 nM. Take `Cc1cscc1-c1ccc([C@H]2CCC[C@@H](C(=O)Nc3ccc(C(F)(F)F)cc3F)[C@@H]2C(=O)O)cc1` [Example 43, (1R,2R,6S)-2-((2-fluoro-4-(trifluoromethyl)phenyl)carbamoyl)-6-(4-(4-methylthiophen-3-yl)phenyl)cyclohexane-1-carboxylic acid]: the IC50 was 10 nM. With `O=C(O)[C@@H]1[C@@H](c2ccc(-c3ccnc4ccsc34)cc2)CCC[C@H]1C(=O)Nc1ccc(C(F)(F)F)cc1F` [Example 44, (1R,2R,6S)-2-((2-fluoro-4-(trifluoromethyl)phenyl)carbamoyl)-6-(4-(thieno[3,2-b]pyridin-7-yl)phenyl)cyclohexane-1-carboxylic acid], the IC50 is 6310 nM.

For `O=C(O)[C@@H]1[C@@H](c2ccc(-c3nncc4ccoc34)cc2)CCC[C@H]1C(=O)Nc1ccc(C(F)(F)F)cc1F` [Example 45, (1R,2R,6S)-2-((2-fluoro-4-(trifluoromethyl)phenyl)carbamoyl)-6-(4-(furo[2,3-d]pyridazin-7-yl)phenyl)cyclohexane-1-carboxylic acid], the IC50 is 126 nM.

Take `Cc1sccc1-c1ccc([C@H]2CCC[C@@H](C(=O)Nc3ccc(C(F)(F)F)cc3F)[C@@H]2C(=O)O)cc1` [Example 46, (1R,2R,6S)-2-((2-fluoro-4-(trifluoromethyl)phenyl)carbamoyl)-6-(4-(2-methylthiophen-3-yl)phenyl)cyclohexane-1-carboxylic acid]: the IC50 was 31.6 nM.

On to `Cc1cc(-c2ccc([C@H]3CCC[C@@H](C(=O)Nc4ccc(C(F)(F)F)cc4F)[C@@H]3C(=O)O)cc2)cs1` [Example 47, (1R,2R,6S)-2-((2-fluoro-4-(trifluoromethyl)phenyl)carbamoyl)-6-(4-(5-methylthiophen-3-yl)phenyl)cyclohexane-1-carboxylic acid], for which the IC50 is 10 nM. The same measure for `O=C(O)[C@@H]1[C@@H](c2ccc(-c3csnc3CO)cc2)CCC[C@H]1C(=O)Nc1ccc(C(F)(F)F)cc1F` [Example 50, (1R,2R,6S)-2-((2-fluoro-4-(trifluoromethyl)phenyl)carbamoyl)-6-(4-(3-(hydroxymethyl)isothiazol-4-yl)phenyl)cyclohexane-1-carboxylic acid]: 7.94 nM.

Regarding `O=C(O)[C@@H]1[C@@H](c2ccc(-c3cnsc3CO)cc2)CCC[C@H]1C(=O)Nc1ccc(C(F)(F)F)cc1F` [Example 51, (1R,2R,6S)-2-((2-fluoro-4-(trifluoromethyl)phenyl)carbamoyl)-6-(4-(5-(hydroxymethyl)isothiazol-4-yl)phenyl) cyclohexane-1-carboxylic acid], the IC50 was 10 nM. Regarding `O=C(O)[C@@H]1[C@@H](c2ccc(-c3ncsc3CO)cc2)CCC[C@H]1C(=O)Nc1ccc(C(F)(F)F)cc1F` [Example 52, (1R,2R,6S)-2-((2-fluoro-4-(trifluoromethyl)phenyl)carbamoyl)-6-(4-(5-(hydroxymethyl)thiazol-4-yl)phenyl)cyclohexane-1-carboxylic acid], the IC50 was 794 nM.

As to `O=C(O)[C@@H]1[C@@H](c2ccc(C3=COCCC3)cc2)CCC[C@H]1C(=O)Nc1ccc(C(F)(F)F)cc1F` [Example 56, (1R,2S,6R)—2-(4-(3,4-dihydro-2H-pyran-5-yl)phenyl)-6-((2-fluoro-4-(trifluoromethyl)phenyl)carbamoyl)cyclohexane-1-carboxylic acid], the IC50 was 1.58 nM.

As for `O=C(O)[C@@H]1[C@@H](c2ccc(C3=CCOC3)cc2)CCC[C@H]1C(=O)Nc1ccc(C(F)(F)F)cc1F` [Example 57, (1R,2S,6R)-2-(4-(2,5-dihydrofuran-3-yl)phenyl)-6-((2-fluoro-4-(trifluoromethyl)phenyl)carbamoyl) cyclohexane-1-carboxylic acid], the IC50 was 100 nM. With `O=C(O)[C@@H]1[C@@H](c2ccc(CCN3CCNC3=O)cc2)CCC[C@H]1C(=O)Nc1ccc(C(F)(F)F)cc1F` [Example 60, (1R,2R,6S)-2-((2-fluoro-4-(trifluoromethyl)phenyl)carbamoyl)-6-(4-(2-(2-oxoimidazolidin-1-yl)ethyl)phenyl)cyclohexane-1-carboxylic acid] the figure was 2510 nM. The same measure for `O=C(O)[C@@H]1[C@@H](c2ccc(C3CCCCC3)cc2)CCC[C@H]1C(=O)Nc1ccc(C(F)(F)F)cc1F` [Example 62, (1R,2S,6R)-2-(4-cyclohexylphenyl)-6-((2-fluoro-4-(trifluoromethyl)phenyl)carbamoyl)cyclohexane-1-carboxylic acid]: 126 nM. With `O=C(O)[C@@H]1[C@@H](c2ccc(C3COC3)cc2)CCC[C@H]1C(=O)Nc1ccc(C(F)(F)F)cc1F` [Example 63, (1R,2R,6S)-2-((2-fluoro-4-(trifluoromethyl)phenyl)carbamoyl)-6-(4-(oxetan-3-yl)phenyl)cyclohexane-1-carboxylic acid] the figure was 1580 nM; with `O=C(O)[C@@H]1[C@@H](c2ccc(CC3(CO)COC3)cc2)CCC[C@H]1C(=O)Nc1ccc(C(F)(F)F)cc1F` [Example 68, (1R,2R,6S)-2-((2-fluoro-4-(trifluoromethyl)phenyl)carbamoyl)-6-(4-((3-(hydroxymethyl)oxetan-3-yl)methyl)phenyl)cyclohexane-1-carboxylic acid], 1580 nM; with `O=C(O)[C@@H]1[C@@H](c2ccc(C3CC3)cc2)CCC[C@H]1C(=O)Nc1ccc(C(F)(F)F)cc1F` [Example 69, (1R,2S,6R)-2-(4-cyclopropylphenyl)-6-((2-fluoro-4-(trifluoromethyl)phenyl)carbamoyl)cyclohexane-1-carboxylic acid], 6310 nM.

Consider `O=C(O)[C@@H]1[C@@H](c2ccc(CC3CCNCC3)cc2)CCC[C@H]1C(=O)Nc1ccc(C(F)(F)F)cc1F` [Example 71, (1R,2R,6S)-2-((2-fluoro-4-(trifluoromethyl)phenyl)carbamoyl)-6-(4-(piperidin-4-ylmethyl)phenyl)cyclohexane-1-carboxylic acid], for which the IC50 is 100000 nM.

In the case of `CN(c1ccc([C@H]2CCC[C@@H](C(=O)Nc3ccc(C(F)(F)F)cc3F)[C@@H]2C(=O)O)cc1)S(=O)(=O)c1nnc[nH]1` [Example 96, (1R,2R,6S)-2-((2-fluoro-4-(trifluoromethyl)phenyl)carbamoyl)-6-(4-(N-methyl-4H-1,2,4-triazole-3-sulfonamido)phenyl)cyclohexane-1-carboxylic acid], the IC50 is 0.501 nM. The same measure for `CN(c1ccc([C@H]2CCC[C@@H](C(=O)Nc3ccc(C(F)(F)F)cc3F)[C@@H]2C(=O)O)cc1)S(=O)(=O)c1cccc(-c2nnco2)c1` [Example 105, (1R,2R,6S)-2-((2-fluoro-4-(trifluoromethyl)phenyl)carbamoyl)-6-(4-((N-methyl-3-(1,3,4-oxadiazol-2-yl)phenyl)sulfonamido)phenyl)cyclohexane-1-carboxylic acid]: 1.58 nM; for `Cc1nc2cc(S(=O)(=O)N(C)c3ccc([C@H]4CCC[C@@H](C(=O)N[C@H]5CC[C@H](C(C)(C)O)CC5)[C@@H]4C(=O)O)cc3)ccc2n1C` [Example 183, (1R,2R,6S)-2-(((1r,4R)-4-(2-hydroxypropan-2-yl)cyclohexyl)carbamoyl)-6-(4-((N,1,2-trimethyl-1H-benzo[d]imidazole)-5-sulfonamido)phenyl)cyclohexane-1-carboxylic acid]: 6.31 nM. For `Cc1nc2cc(S(=O)(=O)N(C)c3ccc([C@H]4CCC[C@@H](C(=O)NC5CCC6(CCCC6)CC5)[C@@H]4C(=O)O)cc3)ccc2n1C` [Example 184, (1R,2R,6S)-2-(spiro[4.5]decan-8-ylcarbamoyl)-6-(4-((N,1,2-trimethyl-1H-benzo[d]imidazole)-5-sulfonamido)phenyl)cyclohexane-1-carboxylic acid, formic acid salt], the IC50 is 631 nM. With `Cc1nc2cc(S(=O)(=O)N(C)c3ccc([C@H]4CCC[C@@H](C(=O)NC56CC(C(F)(F)F)(C5)C6)[C@@H]4C(=O)O)cc3)ccc2n1C` [Example 185, (1R,2R,6S)-2-((3-(trifluoromethyl)bicyclo[1.1.1]pentan-1-yl)carbamoyl)-6-(4-((N,1,2-trimethyl-1H-benzo[d]imidazole)-5-sulfonamido)phenyl)cyclohexane-1-carboxylic acid, formic acid salt] the figure was 63.1 nM; with `Cc1nc2cc(S(=O)(=O)N(C)c3ccc([C@H]4CCC[C@@H](C(=O)NC56CC(C(F)F)(C5)C6)[C@@H]4C(=O)O)cc3)ccc2n1C` [Example 186, (1R,2R,6S)-2-((3-(difluoromethyl)bicyclo[1.1.1]pentan-1-yl)carbamoyl)-6-(4-((N,1,2-trimethyl-1H-benzo[d]imidazole)-5-sulfonamido)phenyl)cyclohexane-1-carboxylic acid, formic acid salt], 3160 nM. The same measure for `Cc1nc2cc(S(=O)(=O)N(C)c3ccc([C@H]4CCC[C@@H](C(=O)N[C@H]5CC[C@@H](C6CCC6)CC5)[C@@H]4C(=O)O)cc3)ccc2n1C` [Example 189, (1R,2R,6S)-2-(((1s,4S)-4-cyclobutylcyclohexyl)carbamoyl)-6-(4-((N,1,2-trimethyl-1H-benzo[d]imidazole)-5-sulfonamido)phenyl)cyclohexane-1-carboxylic acid]: 398 nM. With `Cc1nc2cc(S(=O)(=O)N(C)c3ccc([C@H]4CCC[C@@H](C(=O)N[C@@H]5C[C@@H]6CC(F)(F)C[C@@H]6C5)[C@@H]4C(=O)O)cc3)ccc2n1C` [Example 191, (1R,2R,6S)-2-(((2s,3aR,6aS)-5,5-difluorooctahydropentalen-2-yl)carbamoyl)-6-(4-((N,1,2-trimethyl-1H-benzo[d]imidazole)-5-sulfonamido)phenyl)cyclohexane-1-carboxylic acid] the figure was 398 nM.
